From PubChem BioAssay AID179 (DTP/NCI, 2004)
The source made the active and inactive calls.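 The calls were made as follows: active = compounds giving half or more protection of infected cells from virus-caused growth loss, again on retest; inactive = the rest.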

Test system: CEM cells HIV-1 protection, formazan growth assay
Experiment: NCI AIDS Antiviral Assay
Settings: for IC50: measured here: growth of uninfected CEM cells
In short: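 Human CEM cells, uninfected and HIV-1-infected, received five drug concentrations, and growth was read by soluble formazan assay. Compounds giving at least 50% protection were retested; reproducible 100% protection defined confirmed active.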

OC1c2ccccc2[C@@H]2[C@H]1[C@@H](c1ccccc1)C1(Cc3ccccc3C1O)[C@H]2c1ccccc1 (stereo not given in full) showed an EC50 of over 200 µM and an IC50 of 9.12 µM.

COc1cc(C)c(O)c(C/C=C(\C)CC2=C[C@@]3(C)CCC[C@@]3(C)[C@]3(C=CC(C)(C)O3)O2)c1 was tested, and the EC50 was over 40.7 µM and the IC50 was 11 µM.

Nc1nc(Cl)c2ncn(C3OC(CO)CC3F)c2n1 (stereo not given) showed an EC50 of over 49 µM and an IC50 of over 49 µM.

Work on S=C(NNC1=NCCCCN1)Nc1ccc(Cl)cc1 yielded an EC50 of over 200 µM and an IC50 of 18.6 µM.

With CC(=O)N1CCc2[nH]c3ccccc3c2CC1 the EC50 was over 575 µM and the IC50 was 234 µM.

CC(=N/NC(=S)N1CCCCC1)/C(=N\NC(=S)N1CCCCC1)c1ccccc1 showed an EC50 of over 200 µM and an IC50 of 3.55 µM.

In the case of CC(=O)C1C(=O)C(C(C)=O)C2C3C=CC(C3)C12 (stereo not given), the EC50 is reported as over 200 µM and the IC50 is reported as 74.1 µM.

For N#C/C(=C/N1CCNC1=S)C(N)=O, the EC50 was over 200 µM and the IC50 was over 200 µM.

Compound CCN(Cc1ccccc1)c1ccc(/C=C/c2ccnc3ccccc23)cc1 has an EC50 of over 10.2 µM and an IC50 of 8.32 µM.

For COC(=O)C1C(=O)CC(C)(O)C(C(=O)OC)C1c1ccc(N(C)C)cc1 (stereo not given), the EC50 was over 200 µM and the IC50 was over 200 µM.

For COC(=O)c1c[nH]cc1CCc1c[nH]cc1C(=O)OC, the outcome was “inactive”.

Work on CC(=O)OCCSSCCOC(C)=O yielded an EC50 of over 200 µM and an IC50 of 89.1 µM.

In the case of CCn1cc2c(=O)n3ncn(-c4ccc(Br)cc4)c3nc2n1, the outcome is reported as “inactive”.

COC1OC(OC)C2C(c3c(C)cc(C)cc3C)=NOC12 (stereo not given) gave an EC50 of over 234 µM and an IC50 of over 234 µM.

In the case of COCCCC(NC(=O)C(CC(C)C)NC(=O)OCc1ccc(OC)cc1)C(N)=O (stereo not given), the EC50 is reported as over 200 µM and the IC50 is reported as 182 µM.

Work on CC1(C)CNC[C@](C)(OCCOC(c2ccccc2)(c2ccccc2)c2ccccc2)C(=O)NC(C)(C)CNC[C@@](C)(OCCOC(c2ccccc2)(c2ccccc2)c2ccccc2)C(=O)N1 yielded an EC50 of over 200 µM and an IC50 of over 200 µM.

Work on COc1ccc(/C=C/C(=N/NC(=O)N/N=C(/C=C/c2ccc(OC)cc2)C(C)C)C(C)C)cc1 yielded an EC50 of over 200 µM and an IC50 of 37.2 µM.

In the case of COc1ccc(Br)c(C=Nc2cccc3cc(OC)c(OC)cc23)c1, the outcome is reported as “inactive”.

Compound O=C(NCCc1c[nH]c2ccccc12)C1CCCCC1 has an EC50 of over 200 µM and an IC50 of 67.6 µM.

Cc1ccc2c(c1)SSc1ccc(C)cc1SS2 showed an EC50 of over 200 µM and an IC50 of 110 µM.

CC1c2c(cc(=O)[nH]c2O)C(=O)N1Cc1ccccc1 (stereo not given) showed an EC50 of over 347 µM and an IC50 of 302 µM.

CC1(C)COC2(c3ccccc3)N(c3ccccc3)C(=O)ON12 (stereo not given) showed an EC50 of over 200 µM and an IC50 of over 200 µM.

For CCN(C(=O)N[C@@H](CC(C)C)C(=O)NCC(=O)OC)c1ccccc1, the EC50 was over 200 µM and the IC50 was 110 µM.

In the case of Cn1ncc2c(Nc3ccc(Cl)cc3)c3ccccc3nc21, the outcome is reported as “inactive”.

C/C(=N\NC(=S)N/N=C(\C)c1ccccn1)c1ccccn1 gave an EC50 of over 200 µM and an IC50 of 1.32 µM.

CCOC(=O)c1c2ccc(/C=C/C(=O)OC)ccc-2c(C(=O)OCC)c1N showed an EC50 of over 19.5 µM and an IC50 of over 19.5 µM.

For Cc1ccc(S(=O)(=O)N2CCCSCCSCCCSCC2)cc1, the EC50 was over 17.8 µM and the IC50 was over 17.8 µM.

CC1=C(/C=C/C(C)=C/C=C/C(C)=C/C=C/C=C(C)/C=C/C=C(C)/C=C/C2=C(C)C(=O)C(O)CC2(C)C)C(C)(C)CC(O)C1=O (stereo not given) was tested, and the EC50 was over 43.7 µM and the IC50 was over 43.7 µM.

For Cc1ccc(Cc2nn(C)c(=O)n2N)cc1, the outcome was “inactive”.

For COc1c(Cl)cc(C(=CCCCC(=O)O)c2cc(Cl)c(OC)c(C(=O)O)c2)cc1C(=O)O, the EC50 was over 200 µM and the IC50 was over 200 µM.

Compound COC(=O)C1=C(OC)C(C(=O)OC)[C@@]2(C)C(C(=O)OC)=C(OC)C(C(=O)OC)[C@@]12C (stereo not given in full) has an EC50 of over 417 µM and an IC50 of over 417 µM.

Cc1ccc(S(=O)(=O)N/N=C2\C3CC4CC(C3)C2C4)cc1 (stereo not given) was tested, and the EC50 was over 200 µM and the IC50 was 95.5 µM.

c1ccc2c(c1)SC1=C(SC(=C3SC4=C(S3)Sc3ccccc3S4)S1)S2 was tested, and the EC50 was over 100 µM and the IC50 was over 100 µM.

C[C@@H](NC(=O)[C@@H]1C[C@]1(C)COC(=O)c1cc([N+](=O)[O-])cc([N+](=O)[O-])c1)c1cccc2ccccc12 showed an EC50 of over 200 µM and an IC50 of 115 µM.

In the case of O=C(O)CN(c1ccccc1)S(=O)(=O)c1ccc(NC(=O)c2ccccc2)cc1, the outcome is reported as “inactive”.

For CCOC(=O)c1cc(NC(=O)c2ccccc2)c(=O)n2c(cc3c(Cl)cccc32)c1O, the EC50 was over 200 µM and the IC50 was over 200 µM.

CC1CC[Si](C)(C)CC12C(=O)NC(=O)NC2=O (stereo not given) showed an EC50 of over 200 µM and an IC50 of over 200 µM.

With O=[N+]([O-])c1ccccc1S(=O)(=O)Oc1ccc(Cl)cc1 the outcome was “active”.

For CCCCCNC(=O)C(O)C(O)C(=O)NCCCCC (stereo not given), the EC50 was over 126 µM and the IC50 was over 126 µM.

For Cc1ccc(S(=O)OC2c3ccccc3Cc3ccccc32)cc1 (stereo not given), the outcome was “inactive”.

With Clc1ccc2noc(-c3ccccc3)c2c1 the EC50 was over 22.9 µM and the IC50 was over 22.9 µM.

Cc1cc(S(=O)(=O)Nc2nnc3c4ccccc4ccn23)c(S)cc1Cl showed an EC50 of 155 µM and an IC50 of over 200 µM.

Compound O=C1CCC2(c3ccccc3)Nc3ccncc3N12 (stereo not given) has an EC50 of over 1000 µM and an IC50 of 490 µM.

For O=S(=O)(c1ccccc1)n1c(C(O)c2ccccc2)cc2ccccc21 (stereo not given), the EC50 was over 200 µM and the IC50 was 17.8 µM.
